PubChem BioAssay AID248 (DTP/NCI, 2004)
“And” between values parts separate entries of the source, which are not always exact repeats. Equal entries are not always repeated. Inconclusive results and toxic doses are left out. Cut-off read from the data, not from the text of the source: active = T/C of 150% or more; inactive = T/C below 125%.

System: L1210 leukemia ip in BDF1 mice, survival T/C
Experiment: NCI In Vivo Anticancer Drug Screen. Data for tumor model L1210 Leukemia (intraperitoneal) in B6D2F1 (BDF1) mice
Details: endpoint: mean survival time, higher = longer survival
Method in brief: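 Each compound was tested against a transplantable tumor grown in mice. The endpoint was survival, with treated animals benchmarked against vehicle controls as a simple ratio.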

[1] = dose: 100.0 mg/kg/injection, schedule: Q04DX002 (ip), vehicle: Klucel (hydroxypropylcellulose) (HPC)
[2] = dose: 200.0 mg/kg/injection, schedule: Q04DX002 (ip), vehicle: Klucel (hydroxypropylcellulose) (HPC)
[3] = dose: 400.0 mg/kg/injection, schedule: Q04DX002 (ip), vehicle: Klucel (hydroxypropylcellulose) (HPC)
[4] = dose: 100.0 mg/kg/injection, schedule: Q04DX003 (ip), vehicle: saline with Tween-80
[5] = dose: 200.0 mg/kg/injection, schedule: Q04DX003 (ip), vehicle: saline with Tween-80
[6] = dose: 100.0 mg/kg/injection, schedule: Q01DX009 (ip), vehicle: saline
[7] = dose: 100.0 mg/kg/injection, schedule: Q04DX003 (ip), vehicle: saline
[8] = dose: 200.0 mg/kg/injection, schedule: Q01DX009 (ip), vehicle: saline
[9] = dose: 200.0 mg/kg/injection, schedule: Q04DX003 (ip), vehicle: saline
[10] = dose: 400.0 mg/kg/injection, schedule: Q01DX009 (ip), vehicle: saline
[11] = dose: 400.0 mg/kg/injection, schedule: Q04DX003 (ip), vehicle: saline
[12] = dose: 100.0 mg/kg/injection, schedule: Q01DX009 (ip), vehicle: Klucel (hydroxypropylcellulose) (HPC)
[13] = dose: 200.0 mg/kg/injection, schedule: Q01DX009 (ip), vehicle: Klucel (hydroxypropylcellulose) (HPC)
[14] = dose: 100.0 mg/kg/injection, schedule: Q01DX001 (ip), vehicle: Klucel (hydroxypropylcellulose) (HPC)
[15] = dose: 200.0 mg/kg/injection, schedule: Q01DX001 (ip), vehicle: Klucel (hydroxypropylcellulose) (HPC)
[16] = dose: 400.0 mg/kg/injection, schedule: Q01DX001 (ip), vehicle: Klucel (hydroxypropylcellulose) (HPC)
[17] = dose: 100.0 mg/kg/injection, schedule: Q01DX001 (ip), vehicle: saline
[18] = dose: 200.0 mg/kg/injection, schedule: Q01DX001 (ip), vehicle: saline
[19] = dose: 400.0 mg/kg/injection, schedule: Q01DX001 (ip), vehicle: saline

Measured: T/C

Cc1ccc2c(Cl)ccc(Cl)c2n1
inactive: [1] 90 % of control | dose: 100.0 mg/kg/injection, schedule: Q04DX002 (ip), vehicle: carboxymethylcellulose (CMC) 98 % of control and 90 % of control | dose: 100.0 mg/kg/injection, schedule: Q04DX003 (ip), vehicle: carboxymethylcellulose (CMC) 95 % of control | [2] 90 % of control | dose: 200.0 mg/kg/injection, schedule: Q04DX002 (ip), vehicle: carboxymethylcellulose (CMC) 94 % of control and 91 % of control | dose: 200.0 mg/kg/injection, schedule: Q04DX003 (ip), vehicle: carboxymethylcellulose (CMC) 104 % of control | [3] 105 % of control | dose: 400.0 mg/kg/injection, schedule: Q04DX002 (ip), vehicle: carboxymethylcellulose (CMC) 92 % of control

CN(CC1CCCO1)C(=O)Nc1ccc(Cl)cc1 (configuration not stated)
inactive: dose: 100.0 mg/kg/injection, schedule: Q01DX009 (ip), vehicle: carboxymethylcellulose (CMC) 107 % of control | dose: 200.0 mg/kg/injection, schedule: Q01DX009 (ip), vehicle: carboxymethylcellulose (CMC) 96 % of control | dose: 400.0 mg/kg/injection, schedule: Q01DX009 (ip), vehicle: carboxymethylcellulose (CMC) 104 % of control

CSC1=Nc2c(C)nn(C)c2C(c2ccccc2)S1 (configuration not stated)
inactive: dose: 100.0 mg/kg/injection, schedule: Q04DX002 (ip), vehicle: saline with Tween-80 100 % of control and 112 % of control | [4] 97 % of control and 101 % of control | dose: 200.0 mg/kg/injection, schedule: Q04DX002 (ip), vehicle: saline with Tween-80 104 % of control and 89 % of control | [5] 96 % of control and 100 % of control | dose: 400.0 mg/kg/injection, schedule: Q04DX002 (ip), vehicle: saline with Tween-80 94 % of control and 104 % of control | dose: 400.0 mg/kg/injection, schedule: Q04DX003 (ip), vehicle: saline with Tween-80 96 % of control and 100 % of control

COC(=O)C(N)CSCSC (configuration not stated)
inactive: [6] 107 % of control | [7] 103 % of control | [8] 101 % of control | [9] 105 % of control | [10] 101 % of control | [11] 97 % of control

C(=C/n1cnc2ccccc21)/c1ccccc1
inactive: dose: 87.5 mg/kg/injection, schedule: Q04DX003 (ip), vehicle: Klucel (hydroxypropylcellulose) (HPC) 92 % of control | dose: 175.0 mg/kg/injection, schedule: Q04DX003 (ip), vehicle: Klucel (hydroxypropylcellulose) (HPC) 96 % of control | dose: 350.0 mg/kg/injection, schedule: Q04DX003 (ip), vehicle: Klucel (hydroxypropylcellulose) (HPC) 91 % of control

O=C([O-])C[n+]1ccccc1
inactive: [6] 105 % of control | [7] 105 % of control | [8] 94 % of control | [9] 107 % of control | [10] 87 % of control | [11] 100 % of control

O=[N+]([O-])c1ccc2c(c1)Cc1c-2cc(I)c(O)c1I
inactive: dose: 100.0 mg/kg/injection, schedule: Q01DX001 (ip), vehicle: carboxymethylcellulose (CMC) 96 % of control | dose: 200.0 mg/kg/injection, schedule: Q01DX001 (ip), vehicle: carboxymethylcellulose (CMC) 98 % of control | dose: 400.0 mg/kg/injection, schedule: Q01DX001 (ip), vehicle: carboxymethylcellulose (CMC) 98 % of control

COc1cc(C(=O)NC2CC(C)CC(C)(C)C2)cc(OC)c1OC (configuration not stated)
inactive: [12] 91 % of control | [1] 92 % of control | [13] 91 % of control | [2] 98 % of control | dose: 400.0 mg/kg/injection, schedule: Q01DX009 (ip), vehicle: Klucel (hydroxypropylcellulose) (HPC) 91 % of control | [3] 103 % of control

CNC(=O)Oc1ccccc1C(Cl)(Cl)Cl
inactive: dose: 50.0 mg/kg/injection, schedule: Q01DX009 (ip), vehicle: Klucel (hydroxypropylcellulose) (HPC) 97 % of control | [12] 101 % of control | [13] 112 % of control

Nc1ccc(S(=O)(=O)CCCl)cc1
inactive: [1] 89 % of control | [2] 100 % of control | [3] 100 % of control

CCCCOCC(O)CNCCN (configuration not stated)
inactive: dose: 100.0 mg/kg/injection, schedule: Q04DX002 (ip), vehicle: saline 108 % of control | dose: 200.0 mg/kg/injection, schedule: Q04DX002 (ip), vehicle: saline 90 % of control | dose: 400.0 mg/kg/injection, schedule: Q04DX002 (ip), vehicle: saline 104 % of control

[N-]=[N+]=C1N=C(Br)N=C1c1n[nH]c(Br)n1
inactive: [14] 98 % of control | [15] 109 % of control | [16] 102 % of control

CCCCCCNC(C)=O
inactive: dose: 12.5 mg/kg/injection, schedule: Q01DX009 (ip), vehicle: saline 92 % of control | dose: 25.0 mg/kg/injection, schedule: Q01DX009 (ip), vehicle: saline 118 % of control | dose: 50.0 mg/kg/injection, schedule: Q01DX009 (ip), vehicle: saline 97 % of control and 90 % of control | [6] 90 % of control | [4] 95 % of control | [8] 97 % of control | [5] 87 % of control

N/C(=N\N=C\c1ccc2c(c1)OCO2)N/N=C\c1ccc2c(c1)OCO2
inactive: dose: 15.0 mg/kg/injection, schedule: Q01DX Z (ip), vehicle: carboxymethylcellulose (CMC) 95 % of control | dose: 30.0 mg/kg/injection, schedule: Q01DX Z (ip), vehicle: carboxymethylcellulose (CMC) 101 % of control | dose: 60.0 mg/kg/injection, schedule: Q01DX Z (ip), vehicle: carboxymethylcellulose (CMC) 97 % of control | dose: 120.0 mg/kg/injection, schedule: Q01DX Z (ip), vehicle: carboxymethylcellulose (CMC) 94 % of control | dose: 120.0 mg/kg/injection, schedule: Q01DX Z (oral), vehicle: carboxymethylcellulose (CMC) 95 % of control | dose: 240.0 mg/kg/injection, schedule: Q01DX Z (oral), vehicle: carboxymethylcellulose (CMC) 103 % of control | dose: 480.0 mg/kg/injection, schedule: Q01DX Z (oral), vehicle: carboxymethylcellulose (CMC) 101 % of control | dose: 960.0 mg/kg/injection, schedule: Q01DX Z (oral), vehicle: carboxymethylcellulose (CMC) 97 % of control

O=P(O)(c1ccccc1)c1ccc(I)cc1
inactive: [17] 100 % of control | [7] 100 % of control | [18] 96 % of control | [9] 96 % of control | [19] 98 % of control | [11] 94 % of control

CCN(CC)CCOC(=O)C(S)(c1ccccc1)c1ccccc1
inactive: dose: 75.0 mg/kg/injection, schedule: Q01DX001 (ip), vehicle: other 100 % of control

CCCCCCCCCCCC(C)NCc1ccccc1 (configuration not stated)
inactive: dose: 6.25 mg/kg/injection, schedule: Q01DX009 (ip), vehicle: saline with Tween-80 89 % of control | dose: 12.5 mg/kg/injection, schedule: Q01DX009 (ip), vehicle: saline with Tween-80 89 % of control | dose: 25.0 mg/kg/injection, schedule: Q01DX009 (ip), vehicle: saline with Tween-80 97 % of control | dose: 25.0 mg/kg/injection, schedule: Q04DX003 (ip), vehicle: saline 94 % of control | dose: 35.0 mg/kg/injection, schedule: Q01DX009 (ip), vehicle: acetone 92 % of control

CC(C)(C)N1C(C(=O)c2ccccc2)C1C(=O)c1ccccc1 (configuration not stated)
inactive: [14] 97 % of control | [15] 95 % of control | [16] 89 % of control

CCCCn1c(=S)sc2ccccc21
inactive: [1] 94 % of control | [2] 109 % of control | [3] 88 % of control

O=c1cc(NCc2c(Cl)cccc2[N+](=O)[O-])[nH]c(=O)[nH]1
inactive: dose: 100.0 mg/kg/injection, schedule: Q04DX003 (ip), vehicle: Klucel (hydroxypropylcellulose) (HPC) 98 % of control | dose: 200.0 mg/kg/injection, schedule: Q04DX003 (ip), vehicle: Klucel (hydroxypropylcellulose) (HPC) 95 % of control | dose: 400.0 mg/kg/injection, schedule: Q04DX003 (ip), vehicle: Klucel (hydroxypropylcellulose) (HPC) 95 % of control

COc1cccc(CN(C)CCC(=O)O)c1
inactive: [6] 97 % of control | [7] 105 % of control | [8] 94 % of control | [9] 109 % of control | [10] 101 % of control | [11] 105 % of control

Nc1cc(C(=O)O)ccc1Cl
inactive: [17] 105 % of control | [18] 95 % of control | [19] 95 % of control

CCCCSC(C)(C)CC
inactive: dose: 50.0 mg/kg/injection, schedule: Q01DX001 (ip), vehicle: saline 98 % of control | [17] 93 % of control | [18] 107 % of control | [19] 104 % of control

c1ccc(NCCOc2ccccc2)cc1
inactive: [12] 108 % of control | [1] 114 % of control | [13] 94 % of control | [2] 98 % of control | [3] 88 % of control
